Assay [1] has as its system rat transformed mesenchymal stem cell-derived sarcoma (rTMSC). Description: FACS analysis of TILs in rat rTMSC sarcoma model. As to conditions: for percentage of T cells / CD8+ cells within the CD3+ T cell population: mean±SD. The format is in vivo. Here is the method: Pre-cultured rat transformed mesenchymal stem cell-derived sarcoma model cells (rTMSCs) were harvested in serum free RPMI-1640 and 200,000 rTMSCs were subcutaneously inoculated in the right flank into PVG rats on day ÷2 and 20,000 rTMSCs in the opposite flank on day 0. Established tumours (25 mm^2 mean tumour size) were injected intralesionally with LTX-315 (dissolved in sterile H2O with 0.9% NaC ) (n=8) or with vehicle (sterile H2O with 0.9% NaCl) (n=6). Treatment doses of LTX-315, 50 μl at […] (1 mg), were given using a 1 ml syringe (Myjector U-100, Terumo) needle 0.5×16 mm (Fine-Ject; Henke-Sass, Wolf GmbH. Injections were provided daily for three subsequent days. Tumour size was measured three times a week using a caliper and expressed as the area of an ellipse [(maximum dimension/2)×(minimum dimension/2)]. Animals were terminated when the tumor exceeded 400 mm^2.
Single-cell suspensions were prepared from fresh tumour tissue at different time points during the week after LTX-315 treatment. Tumours were gently minced with a razor blade and cut into small pieces (4 mm^2). Tumour tissue was incubated with Liberase TM (Thermolysin Medium; Roche Diagnostics) at a concentration of 0.18 Wünsch units/ml in 10 ml MEM media (Sigma-Aldrich) at 37° C. for 60 min with gentle agitation. The enzymatic digestion was terminated by addition of 2 ml 4° C. FCS (Invitrogen, Thermo Fischer). The cell suspension was filtered through a […] mesh (Cell Strainer; BD), washed in PBS and cells were then directly used for flow cytometric staining.
The mouse monoclonal antibodies against CD4 ([…]) and CD8 ([…]) were isolated from culture supernatants from hybridomas and were kind gifts from the MRC Cellular Immunology Unit, Oxford, UK. They were conjugated at IMB according to standard protocols. Fluorochrome-conjugated mAbs against CD3 (G4.18) was obtained from BD Biosciences, including PerCP Streptavidin. A four-color panel consisting of reagents in FITC/AI488, PE, PerCP Streptavidin and AI647 was applied and analyzed on a FACS Calibur (BD) equipped with the CellQuest software (BD). Dot plot and histogram gates were set using isotype control antibodies.

Assay [2] has as its system A375 cells. Description: Release of HMGB1 (Western blot). The assay is classed as cell-based, human. Conditions: 35 μM, up to 60 min. As to the method:
A375 cells were seeded with 3×10^5 cells/well in 6-well plates in a complete media, and allowed to adhere overnight. Cells were treated with LTX-315 or LTX-328 at 35 μM, and incubated at 37° C. and 5% CO2 for different time points (5, 10, 15, 30, 60 min), and negative controls were serum-free RPMI-1650. Supernatants (S) were collected and centrifuged at 1,400 g for five minutes, and cell lysates (L) were harvested after washing with PBS twice and then subsequently lysed using a 4×Sample buffer (Invitrogen, number), 0.1 M DTT (Sigma number) and water. Supernatants were concentrated using Amicon Ultra 50 K centrifugal filters (Millipore UFC505024), and the cell lysate was sonicated. Both supernatants and lysate were boiled and resolved in a 10% sodium dodecyl sulfate polyacrylamide gel electrophoresis (SDS-PAGE), and then electro transferred to a polyvindiline difluoride (PVDF) membrane (Millipore). The membrane was blocked in 5% milk and incubated with the HMGB1 antibody (rabbit, polyclonal, abcam ab 18256); the membrane was then rinsed several times with TBST, incubated with a horseradish peroxidase (HRP)-conjugated secondary antibody (abcam ab6721), rinsed again with TBST and then developed using WB Luminol Reagent (Santa Cruz Biotechnology, Heidelberg, Germany).

Assay [3] has as its system B16F1 cells. Put plainly: In vitro cytotoxicity, MTT assay (IC50 4h). The format is cell-based, murine. Conditions: B16F1, 4 h. The source says: JM1, a rat hepatocellular carcinoma, HEPG2 and BEL7402, both human hepatocellular carcinomas, were kindly provided by Dr. Pål-Dag Line, Director, Department of Transplantation Medicine, Oslo University Hospital. B16F1 (ATCC, CRL-6323), a murine skin malignant melanoma, MDA-MB-435S (HTB-129), a human malignant melanoma originating from a breast metastases, Malme-3M (HTB-64), a human malignant melanoma derived from a lung metastases, MRC-5 (ATCC, CCL-171), normal human lung fibroblasts, SK-N-AS (ATCC, CRL-2137), a human neuroblastoma cell line derived from a bone marrow metastases, HT-29 (ATCC, HTB-38), a human colorectal adenocarcinoma and HUV-EC-C (ATCC, CRL-1730), a human vascular endothelium cell line, were all purchased from the American Type Culture Collection (ATCC-LGC Standards, Rockville, MD, USA). HaCat, a human keratinocyte cell line, was kindly provided by Dr. Ingvild Pettersen, Department of Host Microbe Interactions, University of Tromsø. A375, a malignant melanoma cell line of human origin, was purchased from Public Health England (PHE Culture Conditions, Porton, Down, Salisbury, UK). JM1, A375, BEL7402, HEPG2 and B16F1 were all maintained in culture media consisting of DMEM (high glucose), while SK-N-AS, HT-29 and MDA-MB-435S were cultured in an RPMI-1640 medium containing 2 mM L-glutamine and sodium bicarbonate. […]

Square brackets hold non-standard residues; d marks the D form. Ends that are not written are not given here. Dip = N[C@H](C(=O)O)C(c1ccccc1)c1ccccc1

The text below walks through data of patent US20250002854A1, “METHODS OF GENERATING POPULATIONS OF TUMOUR-INFILTRATING T CELLS” (LYTIX BIOPHARMA AS, priority 2016, published 2025).

For “K-K-W-W-K-K-W-Dip-K-NH2 (KKWWKKW[Dip]K-NH2) [LTX-315]”, the entries for the “percentage of T cells” value in assay [1] (primary treated lesion) and in assay [1] (secondary tumor tissue) were 28.35±11.78% and 39.83±17.4%, respectively. For the same compound, the “CD8+ cells within the CD3+ T cell population” value in assay [1] (primary tumor of treated rats) was determined as 62.77±13.3; in assay [1] (secondary tumor of treated rats), 45.8±5.4. The “increase of percentage of T cells compared to untreated rats” value in assay [1] (secondary tumor tissue) was 3 fold. The “HMGB1 translocation from cell lysate to supernatant” value in assay [2] was “gradual translocation from the cell lysate to the supernatant detected”.

With `Cl.Cl.NCCNC(=O)C(CN)(CCCc1ccccc1)CCCc1ccccc1` [LTX-401], 27 µM corresponded to half-maximal inhibition in assay [3] (IC50). This counts as double-digit micromolar.
